According to patent publication US11492346B2, “Benzisoxazole sulfonamide derivatives” (Pfizer Inc., priority 2019, dated 2022):
Where two headings read alike, the source gives them in different places.

How the values were obtained:
Type in all cases: biochemical
KAT8 = KAT8 (Homo sapiens (Human), UniProt Q9H7Z6); experiment: KAT assay (SAMDI mass spectrometry), KAT8
KAT7 = KAT7 (Homo sapiens (Human), UniProt O95251); experiment: KAT assay (SAMDI mass spectrometry), KAT7;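 also: Baculovirus-expressed enzyme acetylating a histone peptide at room temperature, percent conversion from product and substrate peak areas, Ki from a Morrison tight-binding competitive fit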
KAT6B = KAT6B (Homo sapiens (Human), UniProt Q8WYB5); experiment: KAT assay (SAMDI mass spectrometry), KAT6B
KAT5 = KAT5 (Homo sapiens (Human), UniProt Q92993); experiment: KAT assay (SAMDI mass spectrometry), KAT5;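 also: Baculovirus-expressed KAT5 acetylating a histone H4 peptide at room temperature, read as percent conversion to product, Ki from a Morrison tight-binding competitive fit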
KAT6A = KAT6A (Homo sapiens (Human), UniProt Q92794); experiment: KAT assay (SAMDI mass spectrometry), KAT6A;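 also: Baculovirus-expressed KAT6A acetylating histone H3 (1-21) peptide (2 µM), 30-60 min at room temperature, % product conversion fitted to Morrison equation for tight-binding competitive inhibitors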
[1] = read-out: KAT8 Ki at 1 μM AcCoA
[2] = read-out: KAT7 Ki at 1 μM AcCoA
[3] = 25 μM AcCoA, read-out: KAT6b Ki at 25 μM AcCoA
[4] = read-out: KAT5 Ki at 1 μM AcCoA
[5] = read-out: KAT6a Ki at 1 μM AcCoA, 1 μM AcCoA
[6] = read-out: KAT6a Ki at 10 μM AcCoA, 10 μM AcCoA
[7] = read-out: KAT6b Ki at 1 μM AcCoA, 1 μM AcCoA

KAT7, sequence (O95251 whole entry): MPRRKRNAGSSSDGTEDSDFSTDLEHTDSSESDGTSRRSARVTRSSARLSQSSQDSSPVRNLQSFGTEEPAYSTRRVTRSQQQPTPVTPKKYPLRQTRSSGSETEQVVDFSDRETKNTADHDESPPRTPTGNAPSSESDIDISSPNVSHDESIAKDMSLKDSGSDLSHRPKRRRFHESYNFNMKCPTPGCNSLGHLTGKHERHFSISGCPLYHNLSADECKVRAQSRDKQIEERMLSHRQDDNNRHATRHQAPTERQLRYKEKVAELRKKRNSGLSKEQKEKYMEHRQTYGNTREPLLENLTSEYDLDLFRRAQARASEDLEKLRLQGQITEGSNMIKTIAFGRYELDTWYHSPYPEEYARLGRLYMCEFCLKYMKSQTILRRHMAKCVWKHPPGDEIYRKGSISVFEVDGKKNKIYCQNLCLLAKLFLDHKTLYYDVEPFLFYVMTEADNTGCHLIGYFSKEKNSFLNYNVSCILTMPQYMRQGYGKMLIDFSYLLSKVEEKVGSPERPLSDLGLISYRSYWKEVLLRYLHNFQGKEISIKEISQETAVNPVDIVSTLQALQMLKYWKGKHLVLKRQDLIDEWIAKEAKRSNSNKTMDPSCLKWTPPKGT
KAT8, sequence (Q9H7Z6 whole entry): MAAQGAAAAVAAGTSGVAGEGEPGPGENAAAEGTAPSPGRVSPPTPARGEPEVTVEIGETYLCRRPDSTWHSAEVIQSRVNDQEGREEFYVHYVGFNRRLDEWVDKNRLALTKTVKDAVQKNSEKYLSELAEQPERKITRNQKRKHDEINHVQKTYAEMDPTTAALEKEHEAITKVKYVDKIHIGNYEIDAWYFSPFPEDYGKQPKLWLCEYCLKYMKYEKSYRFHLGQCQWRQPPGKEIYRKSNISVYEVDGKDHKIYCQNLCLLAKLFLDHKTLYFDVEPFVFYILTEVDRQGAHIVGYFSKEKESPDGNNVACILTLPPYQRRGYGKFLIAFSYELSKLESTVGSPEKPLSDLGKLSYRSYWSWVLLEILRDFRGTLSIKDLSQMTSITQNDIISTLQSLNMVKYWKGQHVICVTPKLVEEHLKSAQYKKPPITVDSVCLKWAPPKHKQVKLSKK
KAT6A, sequence (Q92794 whole entry): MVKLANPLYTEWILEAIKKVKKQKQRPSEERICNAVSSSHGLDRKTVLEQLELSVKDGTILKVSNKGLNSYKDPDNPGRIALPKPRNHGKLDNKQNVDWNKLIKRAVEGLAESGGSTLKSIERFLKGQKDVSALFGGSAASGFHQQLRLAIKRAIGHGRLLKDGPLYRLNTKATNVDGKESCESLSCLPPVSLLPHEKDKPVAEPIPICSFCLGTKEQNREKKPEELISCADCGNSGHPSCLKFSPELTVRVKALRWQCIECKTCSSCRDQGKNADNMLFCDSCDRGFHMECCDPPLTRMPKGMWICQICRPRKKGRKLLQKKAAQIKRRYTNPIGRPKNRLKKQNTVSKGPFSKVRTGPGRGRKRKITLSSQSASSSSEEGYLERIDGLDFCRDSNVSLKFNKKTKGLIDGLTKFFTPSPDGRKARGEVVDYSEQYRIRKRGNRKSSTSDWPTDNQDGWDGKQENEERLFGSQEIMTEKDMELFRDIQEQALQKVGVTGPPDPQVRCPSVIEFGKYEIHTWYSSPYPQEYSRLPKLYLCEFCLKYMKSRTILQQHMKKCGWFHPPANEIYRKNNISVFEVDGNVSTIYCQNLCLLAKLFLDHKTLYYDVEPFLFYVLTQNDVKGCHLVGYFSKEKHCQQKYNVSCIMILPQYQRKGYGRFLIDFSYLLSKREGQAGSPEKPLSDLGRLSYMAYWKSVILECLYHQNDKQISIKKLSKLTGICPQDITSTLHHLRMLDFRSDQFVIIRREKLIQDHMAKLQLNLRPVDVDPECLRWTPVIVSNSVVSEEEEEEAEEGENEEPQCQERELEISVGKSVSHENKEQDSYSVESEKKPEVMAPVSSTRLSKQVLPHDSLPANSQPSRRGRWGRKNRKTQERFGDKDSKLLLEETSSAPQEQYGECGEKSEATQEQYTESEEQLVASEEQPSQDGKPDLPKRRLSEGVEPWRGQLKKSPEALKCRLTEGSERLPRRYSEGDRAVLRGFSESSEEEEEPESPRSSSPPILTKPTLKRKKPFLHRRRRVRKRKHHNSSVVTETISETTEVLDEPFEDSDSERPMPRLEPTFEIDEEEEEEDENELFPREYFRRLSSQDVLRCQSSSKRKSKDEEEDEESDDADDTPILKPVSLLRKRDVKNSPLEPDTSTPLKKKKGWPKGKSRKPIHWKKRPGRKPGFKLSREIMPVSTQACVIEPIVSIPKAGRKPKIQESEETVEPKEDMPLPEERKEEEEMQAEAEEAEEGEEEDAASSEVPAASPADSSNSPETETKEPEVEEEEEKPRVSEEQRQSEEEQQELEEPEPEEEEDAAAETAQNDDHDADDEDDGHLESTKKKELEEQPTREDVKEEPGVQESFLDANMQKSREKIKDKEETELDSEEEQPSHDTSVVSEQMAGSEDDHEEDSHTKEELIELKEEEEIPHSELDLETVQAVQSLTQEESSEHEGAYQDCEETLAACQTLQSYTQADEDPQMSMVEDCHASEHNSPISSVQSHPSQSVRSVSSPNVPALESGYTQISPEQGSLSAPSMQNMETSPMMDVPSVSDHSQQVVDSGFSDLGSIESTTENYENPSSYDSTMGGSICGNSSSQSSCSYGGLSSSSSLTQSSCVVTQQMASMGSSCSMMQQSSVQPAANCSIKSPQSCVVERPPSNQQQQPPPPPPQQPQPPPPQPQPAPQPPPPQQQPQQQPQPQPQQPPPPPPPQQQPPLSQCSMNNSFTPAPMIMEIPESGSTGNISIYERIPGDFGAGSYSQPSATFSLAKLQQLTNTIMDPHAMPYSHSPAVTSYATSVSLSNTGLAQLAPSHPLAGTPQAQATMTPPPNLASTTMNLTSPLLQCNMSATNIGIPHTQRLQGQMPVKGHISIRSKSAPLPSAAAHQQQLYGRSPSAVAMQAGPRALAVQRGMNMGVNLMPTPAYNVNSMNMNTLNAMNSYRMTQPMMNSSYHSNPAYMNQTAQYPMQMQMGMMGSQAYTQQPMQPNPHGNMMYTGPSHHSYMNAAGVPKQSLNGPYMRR
KAT5, sequence (Q92993 whole entry): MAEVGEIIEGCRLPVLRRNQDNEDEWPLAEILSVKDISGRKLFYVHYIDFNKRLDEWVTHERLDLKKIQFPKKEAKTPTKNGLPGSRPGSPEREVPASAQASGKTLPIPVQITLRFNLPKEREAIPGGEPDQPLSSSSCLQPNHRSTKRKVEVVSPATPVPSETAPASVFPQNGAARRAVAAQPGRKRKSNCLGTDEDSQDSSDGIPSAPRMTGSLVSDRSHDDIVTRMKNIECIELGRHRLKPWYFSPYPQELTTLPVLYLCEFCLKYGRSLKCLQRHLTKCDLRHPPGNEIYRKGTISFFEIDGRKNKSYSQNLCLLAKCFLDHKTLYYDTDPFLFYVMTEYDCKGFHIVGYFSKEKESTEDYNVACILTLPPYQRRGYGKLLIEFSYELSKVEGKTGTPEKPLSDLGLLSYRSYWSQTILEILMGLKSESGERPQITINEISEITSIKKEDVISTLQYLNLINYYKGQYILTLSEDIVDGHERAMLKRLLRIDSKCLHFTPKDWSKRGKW

Ki (KAT8; [1]) [nM] | Ki (KAT7; [2]) [nM] | Ki (KAT6B; [3]) [nM] | Ki (KAT5; [4]) [nM] | Ki (KAT6A; [5]) [nM] | Ki (KAT6A; [6]) [nM] | Ki (KAT6B; [7]) [nM] | Ki (KAT8; 1 μM AcCoA) [nM] | Ki (KAT7; KAT7 Ki at 1 μM AcCoA) [nM] | Ki (KAT6B; KAT6b Ki at 1 μM AcCoA, 1 μM AcCoA) [nM] | Ki (KAT5; 1 μM AcCoA) [nM] | Ki (KAT6A; KAT6a Ki at 1 μM AcCoA, 1 μM AcCoA) [nM] | Structure (SMILES)
1750 | 120 | 1.73 | 830 | 1.27 | 0.64 | – | – | – | – | – | – | COc1ccc(OC(F)(F)F)cc1S(=O)(=O)Nc1noc2cc(Cn3cccn3)cc(OC)c12 [Example 16]
220 | 90 | 1.21 | 150 | 0.7 | 0.51 | – | – | – | – | – | – | COc1ccc(C)cc1S(=O)(=O)Nc1noc2cc(Cn3cccn3)cc(OC)c12 [Example 17]
100 | 120 | 0.96 | 130 | 0.83 | 0.38 | – | – | – | – | – | – | COc1ccc(C(C)C)cc1S(=O)(=O)Nc1noc2cc(Cn3cccn3)cc(OC)c12 [Example 18]
960 | 150 | 3.44 | 800 | 2.18 | – | – | – | – | – | – | – | COc1ccc(OC)c(S(=O)(=O)Nc2noc3cc(Cn4cccn4)cc(OC)c23)c1 [Example 19]
830 | 120 | 1.14 | 1030 | 1.23 | – | – | – | – | – | – | – | COc1ccc2c(c1S(=O)(=O)Nc1noc3cc(Cn4cccn4)cc(OC)c13)CCCC2 [Example 21]
17400 | 12900 | – | 11700 | 16.5 | – | 13.2 | – | – | – | – | – | COc1cccc(OC)c1S(=O)(=O)Nc1noc2cc(Cn3ccnn3)cc(OC)c12 [Example 22]
1970 | 40 | 1.34 | 2070 | 1.22 | 1.24 | 0.87 | – | – | – | – | – | COc1cccc(OC)c1S(=O)(=O)Nc1noc2cc(Cn3nccn3)cc(OC)c12 [Example 23]
160 | 20 | 1.89 | 190 | 1.01 | 0.46 | – | – | – | – | – | – | COc1cc(C2CC2)cc(OC)c1S(=O)(=O)Nc1noc2cc(Cn3cccn3)cc(OC)c12 [Example 24]
12500 | 1080 | 4.46 | 12500 | 2.74 | 1.83 | – | – | – | – | – | – | CCOc1cc(Cn2cccn2)cc2onc(NS(=O)(=O)c3c(OC)cccc3OC)c12 [Example 25]
27100 | 7790 | 12.7 | 125000 | 8.01 | 3.16 | – | – | – | – | – | – | COc1cc(OC)c(S(=O)(=O)Nc2noc3cc(Cn4cccn4)cc(OC4CC4)c23)c(OC)c1 [Example 26]
530 | 50 | 2.39 | 220 | 1.17 | 0.68 | – | – | – | – | – | – | COc1cccc(OC)c1S(=O)(=O)Nc1noc2cc(Cn3cccn3)c(C)cc12 [Example 27]
3260 | 450 | 5.06 | 3050 | 4.4 | – | – | – | – | – | – | – | COc1cccc(OC)c1S(=O)(=O)Nc1noc2cc(Cn3cccn3)ccc12 [Example 28]
1010 | 60 | 1.4 | 180 | 0.53 | – | – | – | – | – | – | – | COc1cc2c(cc1S(=O)(=O)Nc1noc3cc(Cn4cccn4)cc(OC)c13)CCC2 [Example 29]
– | – | 1.55 | – | – | – | – | 900 | 90 | 2.11 | 320 | 2.28 | COc1ccccc1S(=O)(=O)Nc1noc2cc(Cn3cccn3)cc(OC)c12 [Example 45, 2-methoxy-N-{4-methoxy-6-[(1H-pyrazol-1-yl)methyl]-1,2-benzoxazol-3-yl}benzene-1-sulfonamide]
560 | 40 | 1.32 | 180 | 1.14 | 0.49 | – | – | – | – | – | – | COc1cc(C)ccc1S(=O)(=O)Nc1noc2cc(Cn3cccn3)cc(OC)c12 [Example 47]
350 | 20 | 0.98 | 260 | 0.46 | 0.4 | – | – | – | – | – | – | CCOc1cc(C)ccc1S(=O)(=O)Nc1noc2cc(Cn3cccn3)cc(OC)c12 [Example 50]
1110 | 90 | 4.13 | 770 | 2.71 | 1.67 | – | – | – | – | – | – | CCOc1ccccc1S(=O)(=O)Nc1noc2cc(Cn3cccn3)cc(OC)c12 [Example 51]
540 | 40 | 1.56 | 200 | 0.95 | 0.92 | – | – | – | – | – | – | COc1cc(Cn2cccn2)cc2onc(NS(=O)(=O)c3cccc4c(C)ccnc34)c12 [Example 61]

Ki (KAT8; [1]) [nM] | Ki (KAT7; [2]) [nM] | Ki (KAT6B; [3]) [nM] | Ki (KAT5; [4]) [nM] | Ki (KAT6A; [5]) [nM] | Ki (KAT6A; [6]) [nM] | Ki (KAT6B; [7]) [nM] | Ki (KAT8; 1 μM AcCoA) [nM] | Ki (KAT7; KAT7 Ki at 1 μM AcCoA) [nM] | Ki (KAT6B; KAT6b Ki at 1 μM AcCoA, 1 μM AcCoA) [nM] | Ki (KAT5; 1 μM AcCoA) [nM] | Ki (KAT6A; KAT6a Ki at 1 μM AcCoA, 1 μM AcCoA) [nM] | Structure (SMILES)
12500 | 220 | 12.1 | 3060 | 6.04 | 4.44 | – | – | – | – | – | – | COc1cc(Cn2cccn2)cc2onc(NS(=O)(=O)c3ccc(C)cc3F)c12 [Example 65]
3260 | 140 | 1.9 | 410 | 2.28 | 3.27 | – | – | – | – | – | – | COc1cc(Cn2cccn2)cc2onc(NS(=O)(=O)c3cccc(C)c3F)c12 [Example 70]
1440 | 30 | 2.81 | 320 | 1.18 | 1.17 | – | – | – | – | – | – | COc1cc(Cl)ccc1S(=O)(=O)Nc1noc2cc(Cn3cccn3)cc(OC)c12 [Example 71]
12500 | 140 | 6.97 | 2960 | 2.86 | 2.36 | – | – | – | – | – | – | COc1cc(Cn2cccn2)cc2onc(NS(=O)(=O)c3ccc(C)c(C)c3)c12 [Example 72]
3260 | 250 | 1.36 | 710 | 2.31 | 1.7 | – | – | – | – | – | – | COc1cc(Cn2cccn2)cc2onc(NS(=O)(=O)c3c(C)ccc4cccnc34)c12 [Example 73]
12500 | 320 | 13.8 | 5700 | 9.13 | 6.42 | – | – | – | – | – | – | COc1cc(Cn2cccn2)cc2onc(NS(=O)(=O)c3cc(C)cc(F)c3)c12 [Example 75]
12500 | 330 | 60.1 | 4380 | 7.89 | 3.62 | – | – | – | – | – | – | COc1cc(Cn2cccn2)cc2onc(NS(=O)(=O)c3cccc(C)c3C#N)c12 [Example 76]
12500 | 460 | 29.6 | 8450 | 8.56 | 11.9 | – | – | – | – | – | – | COc1cc(Cn2cccn2)cc2onc(NS(=O)(=O)c3ccc(C(F)F)cc3)c12 [Example 77]
12500 | 540 | 26 | 9920 | 5.64 | 5.73 | – | – | – | – | – | – | COc1cc(Cn2cccn2)cc2onc(NS(=O)(=O)c3cc(C)c(F)c(C)c3)c12 [Example 78]
3260 | 220 | 4.27 | 1440 | 5.11 | 4.98 | – | – | – | – | – | – | COc1cc(Cn2cccn2)cc2onc(NS(=O)(=O)c3ccc(C)c(F)c3)c12 [Example 79]
12500 | 190 | 12.3 | 4630 | 7.86 | 5.61 | – | – | – | – | – | – | COc1ccc(S(=O)(=O)Nc2noc3cc(Cn4cccn4)cc(OC)c23)cc1C [Example 84]
17900 | 1840 | – | 10800 | 38.6 | – | 133 | – | – | – | – | – | COc1cccc(OC)c1S(=O)(=O)Nc1noc2cc(Cn3cc(CO)cn3)cc(OC)c12 [Example 87, N-(6-{[4-(hydroxymethyl)-1H-pyrazol-1-yl]methyl}-4-methoxy-1,2-benzoxazol-3-yl)-2,6-dimethoxybenzene-1-sulfonamide]
240 | 30 | 2.73 | 110 | 1.07 | 0.45 | – | – | – | – | – | – | COc1cccc(OC)c1S(=O)(=O)Nc1noc2cc(Cn3cccn3)c(Br)cc12 [Example 92, N-{5-bromo-6-[(1H-pyrazol-1-yl)methyl]-1,2-benzoxazol-3-yl}-2,6-dimethoxybenzene-1-sulfonamide]
3260 | 630 | 2.5 | 3640 | 5.15 | – | – | – | – | – | – | – | COc1cccc(OC)c1S(=O)(=O)Nc1noc2cc(Cn3cccn3)cc(F)c12 [Example 94]
3260 | 4340 | 8.35 | 12500 | 9.88 | – | – | – | – | – | – | – | CCc1cc(Cn2cccn2)cc2onc(NS(=O)(=O)c3c(OC)cccc3OC)c12 [Example 95, N-{4-ethyl-6-[(1H-pyrazol-1-yl)methyl]-1,2-benzoxazol-3-yl}-2,6-dimethoxybenzene-1-sulfonamide]
12500 | 900 | 3.67 | 11700 | 1.58 | – | – | – | – | – | – | – | COc1cccc(OC)c1S(=O)(=O)Nc1noc2cc(Cn3cccn3)cc(C3CC3)c12 [Example 96]
1510 | 120 | 2.74 | 1030 | 1.1 | – | – | – | – | – | – | – | COc1ccc(C2CC2)cc1S(=O)(=O)Nc1noc2cc(Cn3cccn3)cc(OC)c12 [Example 97, 5-cyclopropyl-2-methoxy-N-{4-methoxy-6-[(1H-pyrazol-1-yl)methyl]-1,2-benzoxazol-3-yl}benzene-1-sulfonamide]
